IC50 and EC50 data for 28 compounds are collected here from US20110105544A1, “CARBOXYLIC DERIVATIVES FOR USE IN THE TREATMENT OF CANCER” (priority 2007, published 2011).

The target of experiment [1] is T1, human recombinant HDAC 8 (Homo sapiens, UniProt Q9BY41).
T1 construct: purchased BPS Bioscience 50008
T1 sequence (Q9BY41 1-377): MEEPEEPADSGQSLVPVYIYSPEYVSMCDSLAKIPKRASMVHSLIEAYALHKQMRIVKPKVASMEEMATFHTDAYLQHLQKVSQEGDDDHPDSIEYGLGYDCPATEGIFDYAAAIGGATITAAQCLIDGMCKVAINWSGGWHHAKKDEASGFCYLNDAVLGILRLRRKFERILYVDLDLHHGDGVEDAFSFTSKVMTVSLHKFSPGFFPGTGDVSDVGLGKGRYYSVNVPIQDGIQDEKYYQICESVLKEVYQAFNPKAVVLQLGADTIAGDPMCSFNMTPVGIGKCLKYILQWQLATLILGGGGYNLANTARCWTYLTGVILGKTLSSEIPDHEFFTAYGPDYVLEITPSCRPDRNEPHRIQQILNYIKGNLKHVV
Briefly: HDAC inhibition assay (Fluor de Lys), HDAC8. It is filed as biochemical. Particulars: inhibitor-protein incubation 0 hours, reaction 3 hours, 37° C. The protocol:
(§1) All assays were carried out in the assay buffer: 50 mM Tris/Cl, pH 8.0, 137 mM NaCl, 2.7 mM KCl, 1 mM MgCl2).
(§2) Reactions were carried out in a 96-wells microplate (Corning 96 well Flat Bottom Non-binding surface (black) ref. 3651).
(§3) Potential inhibitors were added after five fold serial dilutions in DMSO. Final DMSO concentration in the assay microplate was kept at 2%.
(§4) Afterwards, human recombinant HDAC1, HDAC 2 or HDAC 8 were added up to […] respectively in assay buffer. When necessary, the mixture was incubated at room temperature prior the addition of substrate.
(§5) Total reaction volume of 50 μl. Human recombinant HDACs could be acquired from commercial sources (HDAC1: ref. #50001, BPS Bioscience™; HDAC 2: ref. #50002, BPS Bioscience™; HDAC 8: ref. #50008, BPS Bioscience™).
(§6) Reactions were stopped with 50 μl Developer (KI-105 Fluor de Lys™, BIOMOL®) with 2 μmol/L trichostatin A (TSA, final concentration 1 μmol/L). After 20 minutes at 37° C., fluorescence (excitation 360 nm, emission 460 nm) was measured using an Infinite F200 fluorimeter (Tecan). Background was determined in reactions using substrate in the absence of enzyme.
(§7) IC50 values are defined as the compound concentration at which the deacetylase activity is 50% inhibited. In these assays the following grading was used (I: IC50≦10 μM; II: 10 μM<IC50≦100 μM; III: 100 μM<IC50≦1 mM) The results obtained are summarized in Table 4.

Experiment [2] concerns human colon cancer cell line HCT116. Briefly: alamarBlue viability assay, HCT116. Particulars: HCT-116, 72 hours, dose required to inhibit cell growth by 50%. It is filed as cell-based. The method, then:
(§8) The human colon cancer cell line HCT116 and the human breast cancer cell line MCF-7 were from the American Type Culture Collection (ATCC; CCL-247 and HTB-22, respectively).
(§9) The HCT116 cell line was maintained in DMEM GlutaMAX (Invitrogen) supplemented with 10% fetal calf serum and the MCF7 cell line was maintained in RPMI1640 GlutaMAX (Invitrogen) containing 1 mM sodium piruvate and 10% fetal calf serum.
(§10) Cells were grown in a humidified incubator at 37° C. in 5% CO2.
(§11) Cells were plated in 96-well plates at a density of 6000 cells/well in 100 μl medium 24 h before addition of drugs. […] To do so, a drugs-dilution plate at twice the screening concentrations was prepared. 72 hours later, alamarBlue (Biosource, Invitrogen) viability assay was performed following manufacturer's protocol. In brief, alamarBlue diluted in media was added to cells to have a 5% solution. Cells were incubated at 37° C., 3 hours and at room temperature, 30 min. Cells with no drug and, cells with no drug and lysed with triton X-100 were used as controls. Fluorescence was monitored at 530 nm excitation and 590 nm emission wavelengths. Results were quantified using Infinite F200 Microplate Reader (Tecan Group, Ltd.). EC50 were calculated as the dose of drugs required to inhibit cell growth by 50%, with Origin 7.0 computer program.

For experiment [3], the target named is T2, human recombinant HDAC 2 (Homo sapiens, UniProt Q92769).
T2 construct: purchased BPS Bioscience 50002
Put plainly: HDAC inhibition assay (Fluor de Lys), HDAC2. The format is biochemical. Particulars: inhibitor-protein incubation 2 hours, reaction 1 h 30 min, 37° C. The protocol:
as §1, §2, §3, §4, §5, §6, §7

For experiment [4], the system named is human breast cancer cell line MCF-7. Briefly: alamarBlue viability assay, MCF-7. It is filed as cell-based. Particulars: MCF7, 72 hours, dose required to inhibit cell growth by 50%. The method, then: as §8, §9, §10, §11

Structures are written as SMILES. Structures can show the parent of a compound that is named as a salt.

T2 sequence (Q92769 whole entry): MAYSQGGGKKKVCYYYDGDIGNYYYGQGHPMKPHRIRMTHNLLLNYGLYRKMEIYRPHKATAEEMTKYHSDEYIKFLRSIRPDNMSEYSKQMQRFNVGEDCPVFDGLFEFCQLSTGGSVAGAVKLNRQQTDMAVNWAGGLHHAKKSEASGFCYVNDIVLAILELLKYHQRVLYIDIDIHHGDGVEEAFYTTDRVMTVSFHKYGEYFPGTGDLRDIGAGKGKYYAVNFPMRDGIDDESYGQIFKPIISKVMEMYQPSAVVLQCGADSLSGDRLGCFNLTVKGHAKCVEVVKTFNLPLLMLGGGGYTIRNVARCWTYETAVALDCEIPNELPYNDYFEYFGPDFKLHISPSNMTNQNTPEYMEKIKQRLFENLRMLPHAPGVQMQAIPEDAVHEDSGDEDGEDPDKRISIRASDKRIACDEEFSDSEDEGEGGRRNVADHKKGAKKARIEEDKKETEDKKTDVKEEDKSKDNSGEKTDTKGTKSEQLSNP

As to `O=C(O)C(CCCc1ccccc1)CCc1ccccn1` (stereo not shown) [Example 28, 5-Phenyl-2-(2-pyridin-2-ylethyl)pentanoic acid], the IC50 in experiment [1] lay within 100 to 1000 µM. This compound also had an EC50 in experiment [2] of 312 µM.
In the case of `O=C(O)C(C/C=C/c1ccccc1)CCc1ccccc1` (stereo not shown) [Example 21, (4E)-5-Phenyl-2-(2-phenylethyl)pent-4-enoic acid], the IC50 in experiment [1] was in the range of 10 to 100 µM; in experiment [3], 100 to 1000 µM. Besides, the response in experiment [2] was half-maximal at 204 µM (EC50).
For the compound `CCCC(CCCc1ccccc1)C(=O)O` (stereo not shown) [Example 35, 5-Phenyl-2-propylpentanoic acid], the IC50 in experiment [1] lay within 10 to 100 µM; in experiment [3], 100 to 1000 µM. In experiment [2], this compound showed an EC50 of 1300 µM.
On to `COc1cccc(CCC(CCCc2ccccc2)C(=O)O)c1` (stereo not shown) [Example 29, 2-[2-(3-methoxyphenyl)ethyl]-5-phenylpentanoic acid], for which the IC50 in experiment [1] lay within 10 to 100 µM; in experiment [3], 100 to 1000 µM. The EC50 in experiment [2] amounted to 166 µM.
As for `CCC(CCc1ccccc1)C(=O)OC` (stereo not shown) [Example 4, Methyl 2-ethyl-4-phenylbutanoate], the EC50 is 354 µM in experiment [4] and 105 µM in experiment [2].
As to `CNS(=O)(=O)c1ccc(CCCC(CCc2ccccc2)C(=O)O)s1` (stereo not shown) [Example 26, 5-{5-[(Methylamino)sulfonyl]thien-2-yl}-2-(2-phenylethyl)pentanoic acid], in experiment [1], the IC50 is 100 to 1000 µM. The same compound showed an EC50 in experiment [2] of 1700 µM.
As for `Cc1ccc(NS(=O)(=O)c2cccc(C#CCC(CCc3ccccc3)C(=O)O)c2)cc1` (stereo not shown) [Example 38, 5-[3-(4-Methylanilinosulfonyl)phenyl]-2-(2-phenylethyl)pent-4-ynoic acid], the IC50 in experiment [1] lay in the range of 10 to 100 µM; in experiment [3], 100 to 1000 µM. In experiment [2], the EC50 is 121 µM.
Consider `O=C(O)C(CCCc1ccccc1)CCc1cccc(O)c1` (stereo not shown) [Example 30, 2-[2-(3-Hydroxyphenyl)ethyl]-5-phenylpentanoic acid], for which the IC50 in experiment [1] was in the range of 100 to 1000 µM. The compound further showed a concentration giving a half-maximal response (EC50) in experiment [2] of 58.2 µM.
Consider `CCCC(CCc1ccccc1)C(=O)O` (stereo not shown) [Example 7, 2-(2-Phenylethyl)pentanoic acid], for which the IC50 in experiment [1] was 10 to 100 µM; in experiment [3], 100 to 1000 µM. Also, the EC50 in experiment [4] was found to be 1850 µM; in experiment [2], 680 µM.
With `O=C(O)C(CCCc1ccccc1)OCc1ccccc1` (stereo not shown) [Example 69, 2-(Benzyloxy)-5-phenylpentanoic acid], the IC50 was 10 to 100 µM in experiment [1] and 100 to 1000 µM in experiment [3]. This compound also returned an EC50 in experiment [2] of 965 µM.
Turning to `CCC(CCc1ccccc1)C(=O)O` (stereo not shown) [Example 5, 2-Ethyl-4-phenylbutanoic acid], the EC50 in experiment [4] was 1420 µM; in experiment [2], 2420 µM.
Turning to `O=C(O)C(CCCc1cccc2ccccc12)CCc1ccccc1` (stereo not shown) [Example 23, 5-(1-Naphthyl)-2-(2-phenylethyl)pentanoic acid], the IC50 in experiment [1] and in experiment [3] was 10 to 100 µM throughout. The 50% effective concentration (EC50) in experiment [2] came out at 67 µM.
In the case of `COC(=O)C(C)CCc1ccccc1` (stereo not shown) [Example 2, methyl 2-methyl-4-phenylbutanoate], the EC50 in experiment [4] was determined as 696 µM; in experiment [2], 238 µM.
Turning to `COc1ccc(CCC(CCCc2ccccc2)C(=O)O)cc1` (stereo not shown) [Example 57, 2-[2-(4-Methoxyphenyl)ethyl]-5-phenylpentanoic acid], the values for the IC50 in experiment [1] and in experiment [3] were 10 to 100 µM and 100 to 1000 µM, respectively. The EC50 in experiment [2] turned out to be 242 µM.
In the same order, the values of `CCc1ccc(CCC(CCCc2ccccc2)C(=O)O)cc1` (stereo not shown) [Example 45, 2-[2-(4-Ethylphenyl)ethyl]-5-phenylpentanoic acid] are ≤ 10 µM, 10 to 100 µM and 165 µM.
Regarding `CNS(=O)(=O)c1ccc(CCCC(CCc2ccccc2)C(=O)O)cc1` (stereo not shown) [Example 13, 5-(4-[(Methylamino)sulfonyl]phenyl)-2-(2-phenylethyl)pentanoic acid], the IC50 in experiment [1] lay in the range of 100 to 1000 µM. The EC50 worked out at 1800 µM in experiment [4] and 2400 µM in experiment [2].
As to `CC(=O)Nc1ccc(CCC(CCCc2ccccc2)C(=O)O)cc1` (stereo not shown) [Example 31, 2-{2-[4-(Acetylamino)phenyl]ethyl}-5-phenylpentanoic acid], the IC50 lay within 10 to 100 µM in experiment [1] and 100 to 1000 µM in experiment [3].
For the compound `O=C(O)C(CCCc1ccc2ccccc2c1)CCc1ccccc1` (stereo not shown) [Example 22, 5-(2-Naphthyl)-2-(2-phenylethyl)pentanoic acid], the IC50 lay within 10 to 100 µM in experiment [1] and 100 to 1000 µM in experiment [3]. In experiment [2], this compound returned an EC50 of 96.5 µM.
In the same order, the values of `O=C(O)C(CCCc1ccccc1)CCc1ccc(-c2cccnc2)cc1` (stereo not shown) [Example 77, 2-[2-(4-Pyridin-3′-ylphenyl)ethyl]-5-phenylpentanoic acid] are ≤ 10 µM, 10 to 100 µM and 90 µM.
The corresponding values for `CCc1ccc(CCC(CCCc2cccc(NC(=O)c3ccc(N(C)C)cc3)c2)C(=O)O)cc1` (stereo not shown) [Example 49, 5-(3-{[4-(Dimethylamino)benzoyl]amino}phenyl)-2-[2-(4-ethylphenyl)ethyl]pentanoic acid] are ≤ 10 µM, 100 to 1000 µM and 140 µM.
For `CC(CCc1ccccc1)C(=O)O` (stereo not shown) [Example 3, 2-Methyl-4-phenylbutanoic acid], the IC50 in experiment [1] fell in the range of 100 to 1000 µM. Moreover, the EC50 was > 5000 µM in experiment [4] and 4510 µM in experiment [2].
Turning to `O=C(O)C(CCCc1ccc(S(=O)(=O)Nc2ccccc2)cc1)CCc1ccccc1` (stereo not shown) [Example 40, 5-(4-[Anilinosulfonyl]phenyl)-2-(2-phenylethyl)pentanoic acid], the IC50 in experiment [1] and in experiment [3] was 10 to 100 µM in each case. For the same compound, the EC50 in experiment [2] was 44.8 µM.
`O=C(O)C(CCCc1cccc(S(=O)(=O)Nc2ccccc2)c1)CCc1ccccc1` (stereo not shown) [Example 39]: the IC50 in experiment [1] was 100 to 1000 µM. For the same compound, in experiment [2], the EC50 stood at 1200 µM.
The compound `O=C(O)C(CCCc1ccccc1)CCc1ccc(Br)cc1` (stereo not shown) [Example 52, 2-[2-(4-Bromophenyl)ethyl]-5-phenylpentanoic acid] had an EC50 in experiment [2] of 107 µM. Also, in experiment [3], the IC50 is 100 to 1000 µM.
In experiment [2], `N#Cc1ccccc1Oc1ccc(CCC(CCCc2ccccc2)C(=O)O)cc1` (stereo not shown) [Example 61, 2-{2-[4-(2-Cyanophenoxy)phenyl]ethyl}-5-phenylpentanoic acid] showed an EC50 of 70.7 µM. The IC50 in experiment [3] is 10 to 100 µM.
Turning to `O=C(O)C(CCCc1cccc(S(=O)(=O)NCc2ccccc2)c1)CCc1ccccc1` (stereo not shown) [Example 27, 5-(3-[(Benzylamino)sulfonyl]phenyl)-2-(2-phenylethyl)pentanoic acid], the IC50 in experiment [1] and in experiment [3] was 10 to 100 µM in each case. Besides, a half-maximal effect in experiment [2] (EC50) was put at 140 µM.
`COC(=O)C(CCc1ccccc1)Cc1ccccc1` (stereo not shown) [Example 8, Methyl 2-benzyl-4-phenylbutanoate]: the EC50 in experiment [4] was found to be 5000 µM.
For the compound `CN(C)c1ccc(C(=O)Nc2cccc(CCCC(CCc3ccccc3)C(=O)O)c2)cc1` (stereo not shown) [Example 24, 5-[3-{[4-(dimethylamino)benzoyl]amino}phenyl]-2-(2-phenylethyl)pentanoic acid hydrochloride], the IC50 is ≤ 10 µM in experiment [1] and 10 to 100 µM in experiment [3]. The EC50 in experiment [2] stood at 75 µM.
